From the NIST ThermoML archive (doi:10.1021/je800152d)

Assay: cn = amount concentration of the nth substance listed, in mol/dm3
Conditions: 298.15 K, 101 kPa, Liquid, Direct current cell with electrodes

CCCCCCCC[n+]1ccn(C)c1.F[P-](F)(F)(F)(F)F [1-octyl-3-methylimidazolium hexafluorophosphate] + ClCCl
Conditions	molar conductivity [S·m2/mol]
c1 = 2.186e-05	0.005349
c1 = 5.202e-05	0.003925
c1 = 8.128e-05	0.003298
c1 = 0.0001312	0.002717
c1 = 0.0001741	0.00242
c1 = 0.000228	0.002164
c1 = 0.0002847	0.001973
c1 = 0.00035	0.00181
c1 = 0.0004112	0.001693
c1 = 0.000468	0.001605

CCCCCCn1cc[n+](C)c1.F[B-](F)(F)F [1-hexyl-3-methylimidazolium tetrafluoroborate] + ClCCl
Conditions	molar conductivity [S·m2/mol]
c1 = 5.56e-05	0.003176
c1 = 0.000168	0.001993
c1 = 0.000301	0.001551
c1 = 0.0004416	0.001315
c1 = 0.0005288	0.001218
c1 = 0.0006627	0.001107
c1 = 0.0007566	0.001048
c1 = 0.0009189	0.0009669
c1 = 0.001094	0.0009009
c1 = 0.001243	0.000856

CC[N+](CC)(CC)CC.F[B-](F)(F)F [tetraethylammonium tetrafluoroborate] + ClCCl
Conditions	molar conductivity [S·m2/mol]
c1 = 5.65e-05	0.006094
c1 = 0.000125	0.004646
c1 = 0.0002055	0.003888
c1 = 0.0002819	0.003459
c1 = 0.0003766	0.003101
c1 = 0.0004713	0.002847
c1 = 0.0005736	0.002643
c1 = 0.0006991	0.00245
c1 = 0.0007981	0.00233
c1 = 0.0008975	0.002227

CCCCn1cc[n+](C)c1C.O=S(=O)([N-]S(=O)(=O)C(F)(F)F)C(F)(F)F + ClCCl
Conditions	molar conductivity [S·m2/mol]
c1 = 1.989e-05	0.008834
c1 = 6.027e-05	0.006684
c1 = 9.148e-05	0.005885
c1 = 0.000124	0.005336
c1 = 0.0001564	0.004935
c1 = 0.0001888	0.004628
c1 = 0.0002366	0.004278
c1 = 0.0002859	0.004001
c1 = 0.0003299	0.003802
c1 = 0.0003742	0.003634

CCCCCCCC[n+]1ccn(C)c1.F[B-](F)(F)F [1-methyl-3-octylimidazolium tetrafluoroborate] + ClCCl
Conditions	molar conductivity [S·m2/mol]
c1 = 7.212e-05	0.002781
c1 = 0.0001299	0.002171
c1 = 0.000219	0.001735
c1 = 0.0002957	0.001524
c1 = 0.0003827	0.001364
c1 = 0.0004665	0.001253
c1 = 0.0005719	0.001149
c1 = 0.0006901	0.001061
c1 = 0.0008223	0.000986
c1 = 0.0009584	0.0009257

C[N+](C)(C)C.O=S(=O)([N-]S(=O)(=O)C(F)(F)F)C(F)(F)F [tetramethylammonium bis[(trifluoromethyl)sulfonyl]imide] + ClCCl
Conditions	molar conductivity [S·m2/mol]
c1 = 1.807e-05	0.006904
c1 = 4.669e-05	0.005019
c1 = 8.293e-05	0.004043
c1 = 0.0001225	0.003465
c1 = 0.0001669	0.003057
c1 = 0.000209	0.002792
c1 = 0.0002676	0.002521
c1 = 0.0003329	0.002305
c1 = 0.0004062	0.002123
c1 = 0.0004962	0.001957

CCCCCCn1cc[n+](C)c1.F[P-](F)(F)(F)(F)F [1-hexyl-3-methylimidazolium hexafluorophosphate] + ClCCl
Conditions	molar conductivity [S·m2/mol]
c1 = 2.071e-05	0.005749
c1 = 5.447e-05	0.004058
c1 = 8.254e-05	0.003448
c1 = 0.0001144	0.003025
c1 = 0.000155	0.002673
c1 = 0.0002089	0.002363
c1 = 0.0002627	0.002148
c1 = 0.0003123	0.001996
c1 = 0.0003903	0.001821
c1 = 0.0004551	0.00171

CCCCn1cc[n+](C)c1.F[P-](F)(F)(F)(F)F [1-butyl-3-methylimidazolium hexafluorophosphate] + ClCCl
Conditions	molar conductivity [S·m2/mol]
c1 = 6.999e-05	0.003807
c1 = 0.0001329	0.002948
c1 = 0.0001743	0.002637
c1 = 0.0002133	0.002425
c1 = 0.0002543	0.002259
c1 = 0.0003123	0.002073
c1 = 0.0003665	0.001941
c1 = 0.0004379	0.001804
c1 = 0.0005447	0.001647
c1 = 0.0006393	0.001541
